Assay results: publication PMC3478417 (Nuclear medicine and biology, 2012)

Experiments:
[1] = PET imaging of [11C]rhodamine-123 in rats; type: in vivo, rat
[2] = tested on: P-gp; details: mouse, not told, iv; cited from earlier work
[3] = mouse; cited from earlier work
[4] = cited from earlier work

CN/C(=N/CCSCc1nc[nH]c1C)NC#N [cimetidine]
inhibition of OCT in kidney in vivo ([1]; 30 mg/kg i.v., 30 min before radiotracer, rats): effective inhibitor of OCT in vivo

COC(=O)c1ccccc1-c1c2ccc(=N)cc-2oc2cc(N)ccc12.Cl [rhodamine-123]
peak radioactivity in liver (PET) ([1]; DCPQ-pretreated versus untreated rats): greater peak radioactivity in liver
brain concentration, P-gp knockout (mdr1a(−/−)) versus wild-type mice [2]: about 4 fold
Plasma free fraction [3]: 0.23 ± 0.04

CNC(=O)C(CCN1CCC(O)(c2ccc(Cl)cc2)CC1)(c1ccccc1)c1ccccc1 [dLop, desmethyl-loperamide]
logD [4]: 2.60
pKa [4]: 7.2–7.3
